Format in all cases: cell-based
The test system of one assay is Lovo cells (G13D). The assay is described as follows: Cell viability assay (CellTiter-Glo), Lovo cells. The following applies: Homo sapiens, 72 h; Lovo cells, 3 days incubation, CellTiter-Glo luminescence; read-out: Inhibition of Cancerous Cells IC50 Lovo (G13D). The essentials: (§1)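 Seeding used reduced-serum (2.5% FBS) medium, RPMI 1640 for H358 and SW48 and DMEM for Lovo and SW480. Compound or DMSO was applied for 3 days at 37 °C; CellTiter-Glo was added and luminescence recorded after 10 min shaking.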
In general terms: Cellular ATP, detected with luciferase, serves as a proxy for viable cell number.

The subject of another assay is H358 cells (G12C). The assay is described as follows: Cell viability assay (CellTiter-Glo), H358 cells. The following applies: Homo sapiens, NCI-H358, 72 h; H358 cells, 3 days incubation, CellTiter-Glo luminescence; read-out: Inhibition of Cancerous Cells IC50 H358 (G12C). The essentials:
as §1

The subject of another assay is SW480 cells (G12V). The assay is described as follows: Cell viability assay (CellTiter-Glo), SW480 cells. The following applies: Homo sapiens, 72 h; SW480 cells, 3 days incubation, CellTiter-Glo luminescence; read-out: Inhibition of Cancerous Cells IC50 SW480 (G12V). The essentials:
as §1

The next assay relates to SW48 cells (wt). The assay is described as follows: Cell viability assay (CellTiter-Glo), SW48 cells. As to conditions: Homo sapiens, 72 h; SW48 cells, 3 days incubation, CellTiter-Glo luminescence; read-out: Inhibition of Cancerous Cells IC50 SW48 (wt). The essentials:
as §1

For the molecule `COc1ccc(C2=N[C@@H](c3ccc(Cl)cc3)[C@@H](c3ccc(Cl)cc3)N2C(=O)N2CCN(CC(=O)NCCCCCCCCCCOc3cc4nc(C)nc(N[C@H](C)c5cccc(Br)c5)c4cc3OC)CC2)c(OC(C)C)c1` [Compound C5, 2-(4-((4S,5R)-4,5-Bis(4-chlorophenyl)-2-(2-isopropoxy-4-methoxyphenyl)-4,5-dihydro-1H-imidazole-1-carbonyl)piperazin-1-yl)-N-(10-((4-(((R)-1-(3-bromophenyl)ethyl)-amino)-6-methoxy-2-methylquinazolin-7-yl)oxy)decyl)acetamide], the IC50 in the assay with Lovo cells (G13D), in the assay with H358 cells (G12C), in the assay with SW480 cells (G12V) and with SW48 cells (wt) was greater than 10000 nM in each case.

With `CNCc1ccccc1-c1csc([C@@H](C)Nc2nc(C)nc3c(CCCCCCCN4CCC(c5cc(F)cc6c5CN(C5CCC(=O)NC5=O)C6=O)CC4)c(OC)c(OC)cc23)c1` (stereo partly drawn) [Compound A54, 3-(4-(1-(7-(6,7-Dimethoxy-2-methyl-4-(((R)-1-(4-(2-((methylamino)methyl)-phenyl)thiophen-2-yl)ethyl)amino)quinazolin-8-yl)heptyl)piperidin-4-yl)-6-fluoro-1-oxoisoindolin-2-yl)piperidine-2,6-dione], the 50% inhibitory concentration (IC50) – broadly, the concentration that inhibits the measured activity by half – in the assay on Lovo cells (G13D) came to 130 nM; in the assay on H358 cells (G12C) it was 360 nM; in the assay with SW480 cells (G12V) it was 240 nM; in the assay on SW48 cells (wt) it was 200 nM.

Take `COc1cc2c(N[C@H](C)c3cccc(Br)c3)nc(C)nc2cc1OCCCCCCCCCN1CCC(c2cc3c(cc2F)C(=O)N(C2CCC(=O)NC2=O)C3)CC1` (stereo partly drawn) [Compound A23, 3-(5-(1-(9-((4-(((R)-1-(3-Bromophenyl)ethyl)amino)-6-methoxy-2-methyl-quinazolin-7-yl)oxy)nonyl)piperidin-4-yl)-6-fluoro-1-oxoisoindolin-2-yl)piperidine-2,6-dione]: the IC50 in the assay on Lovo cells (G13D) was found to be 330 nM; in the assay on H358 cells (G12C), 760 nM; in the assay with SW480 cells (G12V) it was 290 nM; in the assay on SW48 cells (wt), 300 nM.

Turning to `COc1ccc(C2=N[C@@H](c3ccc(Cl)cc3)[C@@H](c3ccc(Cl)cc3)N2C(=O)N2CCN(CC(=O)NCCCCCCOc3cc4nc(C)nc(N[C@H](C)c5cccc(Br)c5)c4cc3OC)C(=O)C2)c(OC(C)C)c1` [Compound C1, 2-(4-((4S,5R)-4,5-Bis(4-chlorophenyl)-2-(2-isopropoxy-4-methoxyphenyl)-4,5-dihydro-1H-imidazole-1-carbonyl)-2-oxopiperazin-1-yl)-N-(6-((4-(((R)-1-(3-bromophenyl)-ethyl)amino)-6-methoxy-2-methylquinazolin-7-yl)oxy)hexyl)acetamide], the IC50 in the assay with Lovo cells (G13D), with H358 cells (G12C), in the assay with SW480 cells (G12V) and in the assay on SW48 cells (wt) was greater than 10000 nM throughout.

Regarding `COc1cc2c(N[C@H](C)c3cccc(C(F)(F)CO)c3)nc(C)nc2cc1OCCCCCCCN1CCC(c2cc3c(cc2F)C(=O)N(C2CCC(=O)NC2=O)C3)CC1` (stereo partly drawn) [Compound A27, 3-(5-(1-(7-((4-(((R)-1-(3-(1,1-Difluoro-2-hydroxyethyl)phenyl)ethyl)amino)-6-methoxy-2-methylquinazolin-7-yl)oxy)heptyl)piperidin-4-yl)-6-fluoro-1-oxoisoindolin-2-yl)-piperidine-2,6-dione], the IC50 in the assay with Lovo cells (G13D) is 580 nM; in the assay with H358 cells (G12C), 1000 nM; with SW480 cells (G12V) it was 590 nM; in the assay with SW48 cells (wt), 940 nM.

In the case of `CNCc1ccccc1-c1csc([C@@H](C)Nc2nc(C)nc3cc(OCCCCCCCN4CCC(c5cc6c(cc5F)C(=O)N(C5CCC(=O)NC5=O)C6)CC4)c(OC)cc23)c1` (stereo partly drawn) [Compound A25, 3-(6-Fluoro-5-(1-(7-((6-methoxy-2-methyl-4-(((R)-1-(4-(2-((methylamino)-methyl)phenyl)thiophen-2-yl)ethyl)amino)quinazolin-7-yl)oxy)heptyl)piperidin-4-yl)-1-oxoisoindolin-2-yl)piperidine-2,6-dione], the half-maximal inhibitory concentration (IC50) amounted to 290 nM in the assay with Lovo cells (G13D), 510 nM in the assay with H358 cells (G12C), 370 nM in the assay on SW480 cells (G12V) and 420 nM with SW48 cells (wt).
